We go through eight molecules from patent US20100092526A1, “NANOEMULSION THERAPEUTIC COMPOSITIONS AND METHODS OF USING THE SAME” (NanoBio Corporation, priority 2008, published 2010).

Holding throughout (assay type): cell-based
In test [1] the test system is methicillin-resistant Staphylococcus aureus (MRSA). Put plainly: Susceptibility (MIC/MBC) of MRSA clinical isolates. The following applies: for MBC50(15) / MIC50(15) / MBC90(26) / MIC90(26): 29 MRSA clinical isolates; for MBC50(15) / MIC50(15): rank 15; for MBC90(26) / MIC90(26): rank 26; for MBC / MIC: individual MRSA clinical isolates, values listed by rank order 1-29.

Another test relates to Burkholderia strains. Put plainly: Checkerboard synergy study (FIC/FBC index). The settings on record: combined with P4075EC+EDTA.
The next test has as its system Stenotrophomonas strains. Description: Checkerboard synergy study (FIC/FBC index). The settings on record: combined with P4075EC+EDTA.
Another test concerns Acinetobacter strains. Put plainly: Checkerboard synergy study (FIC/FBC index). The settings on record: combined with P4075EC+EDTA.
The mark [2] stands for this setting: share of ten Burkholderia strains with synergy.
The mark [3] stands for this setting: share of Stenotrophomonas strains with synergy.
The mark [4] stands for this setting: share of 10 Acinetobacter strains with synergy.

Each structure is given as a SMILES string. In brackets after ≈: the same amount, converted by molar mass. Several values for one entry are separate records, joined by “and”; a condition that tells them apart may be missing. Equal entries are not always repeated. Some results are limits rather than exact numbers.

As for `CCC[C@@H]1C[C@@H](C(=O)N[C@@H]([C@H]2O[C@H](SC)[C@H](O)[C@@H](O)[C@H]2O)[C@H](C)Cl)N(C)C1` [Clind], in test [1], the “MBC50(15)” value is above 64 µg/mL, the “MIC50(15)” value is above 64 µg/mL, the “MBC90(26)” value is above 64 µg/mL and the “MIC90(26)” value was above 64 µg/mL. In addition, in test [1], the MBC (commonly the lowest tested concentration that kills the bacteria rather than only halting them) was >64 μg/ml (17×) and >2 μg/ml (10×) and 2 μg/ml and 1 μg/ml; the MIC – broadly, the smallest concentration in the dilution series that meets the test's criterion for growth inhibition – is >64 μg/ml (17×) and 0.125 μg/ml (12×).

For `C[C@H]1c2cccc(O)c2C(=O)C2=C(O)[C@]3(O)C(=O)C(C(N)=O)=C(O)[C@@H](N(C)C)[C@@H]3[C@@H](O)[C@@H]21` [Dox], in test [1], the “MBC50(15)” value was above 4 µg/mL, the “MIC50(15)” value was determined as 0.25 µg/mL (≈ 0.563 µM), the “MBC90(26)” value was above 64 µg/mL and the “MIC90(26)” value is 4 µg/mL (≈ 9 µM). Further, in test [1], the MBC is >128 μg/ml and >64 μg/ml (4×) and >4 μg/ml (21×) and 2 μg/ml and 1 μg/ml (2×); the MIC was 4 μg/ml (4×) and 0.25 μg/ml (25×).

Regarding `CC[C@H]1OC(=O)[C@H](C)[C@@H](O[C@H]2C[C@@](C)(OC)[C@@H](O)[C@H](C)O2)[C@H](C)[C@@H](O[C@@H]2O[C@H](C)C[C@H](N(C)C)[C@H]2O)[C@](C)(O)C[C@@H](C)C(=O)[C@H](C)[C@@H](O)[C@]1(C)O` [Eryth], in test [1], the “MIC50(15)” value was 64 µg/mL (≈ 87.2 µM); the MBC was 64 μg/ml and >4 μg/ml (4×); the MIC was 64 μg/ml (6×) and 32 μg/ml (3×) and 16 μg/ml and 8 μg/ml and 0.25 μg/ml (4×).

For `C[C@H]1COc2c(N3CCN(C)CC3)c(F)cc3c(=O)c(C(=O)O)cn1c23` [Levo], in test [1], the “MBC50(15)” value was determined as 16 µg/mL (≈ 44.3 µM), the “MIC50(15)” value turned out to be 8 µg/mL (≈ 22.1 µM), the “MBC90(26)” value was above 64 µg/mL and the “MIC90(26)” value was 32 µg/mL (≈ 88.6 µM). In test [1], the MBC is >64 μg/ml (6×) and 64 μg/ml (2×) and >32 μg/ml and 32 μg/ml (5×) and 16 μg/ml (3×) and 8 μg/ml (4×) and 4 μg/ml and 1 μg/ml and 0.5 μg/ml and 0.25 μg/ml (5×); the MIC was >64 μg/ml (2×) and 32 μg/ml (5×) and 16 μg/ml (4×) and 8 μg/ml (5×) and 4 μg/ml (5×) and 2 μg/ml and 0.5 μg/ml and 0.25 μg/ml (3×) and 0.125 μg/ml (3×).

With `CC(=O)O.NCc1ccc(S(N)(=O)=O)cc1` [Maf. Acet.], in test [1], the “MBC50(15)” value was above 128 µg/mL, the “MBC90(26)” value is above 128 µg/mL and the MBC is above 128 µg/mL.

Turning to `CC(=O)O.NCc1ccc(S(N)(=O)=O)cc1` [Maf. Acet], in test [1], the “MIC50(15)” value was above 128 µg/mL; the “MIC90(26)” value was above 128 µg/mL; the minimum inhibitory concentration (MIC) is >128 μg/ml (28×) and 128 μg/ml.

In the case of `C/C(=C\C(=O)OCCCCCCCCC(=O)O)C[C@@H]1OC[C@H](C[C@@H]2O[C@H]2[C@@H](C)[C@H](C)O)[C@@H](O)[C@H]1O` [Mup], in test [1], the “MBC50(15)” value was above 2 µg/mL, the “MIC50(15)” value amounted to 0.25 µg/mL (≈ 0.499 µM), the “MBC90(26)” value was above 64 µg/mL and the “MIC90(26)” value is above 64 µg/mL. In test [1], the MBC is >64 μg/ml (9×) and >8 μg/ml and >4 μg/ml (5×) and >2 μg/ml (11×) and 1 μg/ml (3×); the MIC was >64 μg/ml (8×) and 16 μg/ml and 0.25 μg/ml (9×) and 0.125 μg/ml (11×).

Take `NC[C@H]1O[C@H](O[C@H]2[C@H](O)[C@@H](O[C@H]3O[C@H](CO)[C@@H](O)[C@H](N)[C@H]3O)[C@H](N)C[C@@H]2N)[C@H](N)C[C@@H]1O` [Tobra]: the FBC with Burkholderia strains (isolate NB21) is 0.48; in the test on Burkholderia strains (isolate NB22), 1.23; in the test with Burkholderia strains (isolate NB23) it was 1.09; with Burkholderia strains (isolate NB24), 1.36; in the test on Burkholderia strains (isolate NB25) it was 0.99; in the test on Burkholderia strains (isolate NB26), 0.92. For the same molecule, the FBC turned out to be 1.27 with Burkholderia strains (isolate NB27); 1.06 in the test on Burkholderia strains (isolate NB28b); 0.07 in the test with Burkholderia strains (isolate NB29); 0.54 with Burkholderia strains (isolate NB30); 2.15 in the test with Stenotrophomonas strains (isolate NB42); 2.29 in the test with Stenotrophomonas strains (isolate NB43). The FBC in the test on Stenotrophomonas strains (isolate NB44) was found to be 2.86; in the test with Stenotrophomonas strains (isolate NB45) it was 1.50; in the test with Stenotrophomonas strains (isolate Steno 1), 1.57; in the test on Stenotrophomonas strains (isolate Steno 2), 2.23; in the test with Stenotrophomonas strains (isolate Steno 3), 1.29; in the test on Stenotrophomonas strains (isolate Steno 4), 1.61. Moreover, the FBC worked out at 0.89 with Stenotrophomonas strains (isolate Steno 6); 1.15 in the test on Stenotrophomonas strains (isolate Steno 8); 1.50 with Acinetobacter strains (isolate NB31); 1.79 in the test on Acinetobacter strains (isolate NB32); 1.75 with Acinetobacter strains (isolate NB33); 0.24 in the test on Acinetobacter strains (isolate NB34). Further, the FBC in the test on Acinetobacter strains (isolate NB36) is 2.29; in the test on Acinetobacter strains (isolate NB37) it was 1.72; in the test on Acinetobacter strains (isolate NB38) it was 1.57; with Acinetobacter strains (isolate NB39) it was 3.52; in the test with Acinetobacter strains (isolate NB40) it was 3.01. For the same molecule, the FIC in the test on Burkholderia strains (isolate NB21) is reported as 0.27; with Burkholderia strains (isolate NB22), 0.35; with Burkholderia strains (isolate NB23), 1.06; with Burkholderia strains (isolate NB24) it was 1.31; in the test on Burkholderia strains (isolate NB25), 1.45; in the test with Burkholderia strains (isolate NB26), 0.12. In addition, the FIC in the test with Burkholderia strains (isolate NB27) was determined as 1.44; in the test on Burkholderia strains (isolate NB28b), 0.54; in the test on Burkholderia strains (isolate NB29), 0.32; in the test on Burkholderia strains (isolate NB30), 0.27; in the test with Stenotrophomonas strains (isolate NB42), 0.14; in the test with Stenotrophomonas strains (isolate NB43) it was 1.40. Besides, the FIC in the test on Stenotrophomonas strains (isolate NB44) is reported as 1.5; in the test with Stenotrophomonas strains (isolate NB45) it was 0.97; with Stenotrophomonas strains (isolate Steno 1), 0.79; in the test on Stenotrophomonas strains (isolate Steno 2), 0.04; in the test with Stenotrophomonas strains (isolate Steno 3), 0.79; with Stenotrophomonas strains (isolate Steno 4), 1.72. In addition, the FIC in the test on Stenotrophomonas strains (isolate Steno 6) worked out at 0.59; with Stenotrophomonas strains (isolate Steno 8), 0.63; with Acinetobacter strains (isolate NB31), 0.98; with Acinetobacter strains (isolate NB32) it was 0.88; in the test on Acinetobacter strains (isolate NB34) it was 0.41; in the test on Acinetobacter strains (isolate NB35) it was 1.21. Moreover, the FIC with Acinetobacter strains (isolate NB36) came to 3.30; with Acinetobacter strains (isolate NB37), 0.75; in the test with Acinetobacter strains (isolate NB38), 1.05; in the test on Acinetobacter strains (isolate NB39) it was 3.30; with Acinetobacter strains (isolate NB40), 3.01. In addition, the “Synergy (FBC)” value is listed as “yes” in the test with Burkholderia strains (isolate NB21); “indifferent” with Burkholderia strains (isolate NB22); “indifferent” with Burkholderia strains (isolate NB23); “indifferent” in the test on Burkholderia strains (isolate NB24); “indifferent” in the test with Burkholderia strains (isolate NB25); “indifferent” with Burkholderia strains (isolate NB26). Also, the “Synergy (FBC)” value is given as “indifferent” in the test with Burkholderia strains (isolate NB27); “indifferent” with Burkholderia strains (isolate NB28b); “yes” in the test with Burkholderia strains (isolate NB29); “yes” in the test with Burkholderia strains (isolate NB30); “indifferent” in the test with Stenotrophomonas strains (isolate NB42); “indifferent” in the test on Stenotrophomonas strains (isolate NB43). Further, the “Synergy (FBC)” value in the test on Stenotrophomonas strains (isolate NB44), with Stenotrophomonas strains (isolate NB45), in the test with Stenotrophomonas strains (isolate Steno 1), in the test with Stenotrophomonas strains (isolate Steno 2), with Stenotrophomonas strains (isolate Steno 3) and with Stenotrophomonas strains (isolate Steno 4) was “indifferent” each time. Besides, the “Synergy (FBC)” value in the test with Stenotrophomonas strains (isolate Steno 6) was “indifferent”; in the test with Stenotrophomonas strains (isolate Steno 8) it was “indifferent”; in the test on Acinetobacter strains (isolate NB31), “no”; in the test with Acinetobacter strains (isolate NB32) it was “no”; in the test on Acinetobacter strains (isolate NB33), “no”; with Acinetobacter strains (isolate NB34), “yes”. For the same molecule, the “Synergy (FBC)” value in the test on Acinetobacter strains (isolate NB35), in the test on Acinetobacter strains (isolate NB36), in the test on Acinetobacter strains (isolate NB37), in the test with Acinetobacter strains (isolate NB38), in the test on Acinetobacter strains (isolate NB39) and in the test on Acinetobacter strains (isolate NB40) was “no” throughout. For the same molecule, the “Synergy (FIC)” value is “yes” in the test on Burkholderia strains (isolate NB21); “yes” in the test on Burkholderia strains (isolate NB22); “indifferent” with Burkholderia strains (isolate NB23); “indifferent” with Burkholderia strains (isolate NB24); “indifferent” in the test on Burkholderia strains (isolate NB25); “yes” with Burkholderia strains (isolate NB26). Also, the “Synergy (FIC)” value in the test on Burkholderia strains (isolate NB27) is recorded as “indifferent”; in the test with Burkholderia strains (isolate NB28b), “yes”; in the test on Burkholderia strains (isolate NB29), “yes”; in the test with Burkholderia strains (isolate NB30) it was “yes”; with Stenotrophomonas strains (isolate NB42), “yes”; in the test on Stenotrophomonas strains (isolate NB43), “indifferent”. In addition, the “Synergy (FIC)” value is listed as “indifferent” in the test on Stenotrophomonas strains (isolate NB44); “indifferent” in the test with Stenotrophomonas strains (isolate NB45); “indifferent” in the test with Stenotrophomonas strains (isolate Steno 1); “yes” in the test on Stenotrophomonas strains (isolate Steno 2); “indifferent” with Stenotrophomonas strains (isolate Steno 3); “indifferent” with Stenotrophomonas strains (isolate Steno 4). The “Synergy (FIC)” value in the test with Stenotrophomonas strains (isolate Steno 6) was “indifferent”; with Stenotrophomonas strains (isolate Steno 8), “indifferent”; with Acinetobacter strains (isolate NB31), “indifferent”; with Acinetobacter strains (isolate NB32), “indifferent”; in the test with Acinetobacter strains (isolate NB33), “indifferent”; with Acinetobacter strains (isolate NB34) it was “yes”. Moreover, the “Synergy (FIC)” value in the test with Acinetobacter strains (isolate NB35), in the test with Acinetobacter strains (isolate NB36), with Acinetobacter strains (isolate NB37), in the test with Acinetobacter strains (isolate NB38), in the test with Acinetobacter strains (isolate NB39) and with Acinetobacter strains (isolate NB40) was “indifferent” throughout. Further, the “% FBC Synergy” value in the test with Burkholderia strains (setting [2]) came out at 30%; in the test on Stenotrophomonas strains (setting [3]), 0%; in the test on Acinetobacter strains (setting [4]), 10%. The “% FIC Synergy” value in the test with Burkholderia strains (setting [2]) stood at 50%; in the test on Stenotrophomonas strains (setting [3]), 20%; in the test with Acinetobacter strains (setting [4]), 10%.
